This passage reports melting point results from a melting point compilation (Tetko et al.).

Structures are written as SMILES.

As a reminder, the melting point is the temperature of the solid-liquid transition.

`CCOC(=O)c1cnc(N2CCNCC2)s1` gave a melting point of 73 to 75 °C.

With `O=S(=O)(NC1CC1)c1ccc(F)cc1`, the melting point lay within 54 to 56 °C.

On to `Cc1ccccc1N(CC(=O)O)S(C)(=O)=O`, for which the melting point was 109 to 111 °C.

Regarding `C#CCNC(=O)c1cccnc1Cl`, the melting point was 107 to 109 °C.

With `Nc1nc(Cc2ccc(Cl)cc2Cl)cs1`, the melting point lay in the range of 96 to 98 °C.

Take `CC(C)NC(=O)c1ccc(Cl)c(N)c1`: the melting point lay within 131 to 133 °C.

`COc1ccc(CN2CCCC2)cc1N` came in with a melting point of 46 to 48 °C.

The compound `O=C(O)c1csc(-c2ccsc2)n1` showed a melting point of 165 to 167 °C.

As for `Cc1cc(Cl)ccc1OC(C(=O)O)c1ccccc1` (stereo not drawn), the melting point lay in the range of 122 to 124 °C.

Take `Nc1ccc(N2CCOC2=O)cc1`: the melting point was 149 to 151 °C.

The compound `O=C(O)Cc1ccco1` came in with a melting point of 64 to 69 °C.

With `CC(=O)c1nnn(-c2cccc(Br)c2)c1C`, the melting point fell in the range of 74 to 76 °C.

As to `COc1ncc(F)c(O)n1`, the melting point was in the range of 195 to 197 °C.

As to `CN(C)C(=O)c1ccc(F)nc1`, the melting point lay in the range of 44 to 46 °C.

Compound `COc1ccccc1-c1noc(CCl)n1` yielded a melting point of 61 to 63 °C.

`CCCOc1cccc(CC(=O)O)c1` displayed a melting point of 88 to 90 °C.

The compound `NS(=O)(=O)c1cc2c(cc1Br)CCCC(=O)N2` displayed a melting point of 249 to 251 °C.

`CN(C)CCNC(=O)Cc1ccc(N)cc1` had a melting point of 145 to 147 °C.

Take `O=C(O)C1CCN(c2ccc3cccc(O)c3n2)CC1`: the melting point lay in the range of 281 to 283 °C.

`Nc1ccc2oc(CO)nc2c1` gave a melting point of 113 to 115 °C.

In the case of `O=Cc1ccc2cn[nH]c2c1`, the melting point lay within 179 to 181 °C.

`Clc1cc(N2CCSCC2)ncn1` showed a melting point of 134 to 136 °C.

In turn, `CCS(=O)(=O)c1cc(F)ccc1N` registered a melting point of 43 to 45 °C.

Regarding `COc1ccc(CNc2ccncn2)cc1OC`, the melting point lay within 124 to 126 °C.

The compound `Cn1cnnc1Sc1ccccc1N` displayed a melting point of 137 to 139 °C.

For `Cc1ccc(Sc2nc(=N)s[nH]2)cc1`, the melting point lay in the range of 181 to 183 °C.

Regarding `O=C1C(=O)N(Cc2ccccc2Cl)c2ccccc21`, the melting point lay in the range of 130 to 132 °C.

The compound `Cc1cc(C)n(CCS(C)(=O)=O)n1` showed a melting point of 90 to 92 °C.

Consider `COc1cc(N)ccc1NC(C)=O`, for which the melting point was 121 to 123 °C.

`O=C1NS(=O)(=O)c2ccc(Br)cc21`: the melting point lay in the range of 245 to 247 °C.

The compound `NC(CC(=O)O)c1cnn(-c2ccccc2)c1` (stereo not drawn) displayed a melting point of 219 to 221 °C.

Consider `CC(N)c1nc(-c2ccc(Br)cc2)cs1` (stereo not drawn), for which the melting point lay within 77 to 79 °C.

Compound `ClCc1nnc(-c2ccccc2)o1` gave a melting point of 90 to 100 °C.

Compound `O=C(O)C1CCCN1C(=O)Nc1ccccc1` (stereo not drawn) came in with a melting point of 161 to 163 °C.

Turning to `NS(=O)(=O)c1ccc(N2CCC(C(=O)O)CC2)c([N+](=O)[O-])c1`, the melting point lay within 181 to 183 °C.

The compound `Cc1nnc(Br)s1` returned a melting point of 106 to 108 °C.

`ClCc1coc(-c2ccccc2Cl)n1`: the melting point lay within 54 to 56 °C.

`COc1ccc(Br)c(-c2nnn[nH]2)c1`: the melting point lay within 209 to 211 °C.

The compound `O=C(Nc1ccc2[nH]ccc2c1)c1ccc(F)cc1Br` displayed a melting point of 185 to 187 °C.

Take `Cc1cc(C(=O)O)c2c(C)noc2n1`: the melting point was 233 to 235 °C.

`COc1cc(C(C)=O)ccc1S(=O)(=O)C(F)F` displayed a melting point of 134 to 136 °C.

Compound `Cn1ncc(Br)c(Br)c1=O` had a melting point of 114 to 116 °C.

As for `NC(=NO)c1ccc(OCc2ccccc2)cc1`, the melting point lay in the range of 167 to 169 °C.

As for `Cc1[nH]n(-c2ccc(Br)cc2)c(=N)c1C`, the melting point was 131 to 133 °C.

For the compound `CCOc1ccc(C(C)=O)cc1[N+](=O)[O-]`, the melting point was 54 to 56 °C.

In the case of `CC(C)(C)OC(=O)NCc1cc[nH]n1`, the melting point was 104 to 106 °C.

In turn, `Cc1sc(=O)n(CCC(=O)O)c1C` came in with a melting point of 150 to 152 °C.

As to `COc1cc(C)nc(Cl)n1`, the melting point was 35 to 37 °C.

Take `COC(=O)C1CSCCC1=O` (stereo not drawn): the melting point lay within 67 to 69 °C.

In turn, `O=C(O)CC(Cc1ccccc1)Cc1ccccc1` displayed a melting point of 82 to 84 °C.

In turn, `O=S1(=O)CCC(S(=O)(=O)Cl)CC1` registered a melting point of 175 to 177 °C.

Consider `Cc1cccc(-n2ncc(C(=O)O)n2)c1`, for which the melting point lay within 131 to 133 °C.

Compound `N#Cc1ccc(N2CCC(C(=O)O)CC2)nc1` returned a melting point of 174 to 176 °C.

In turn, `CCc1c(C)nc2ccccc2c1N` came in with a melting point of 148 to 150 °C.

The compound `O=C(O)c1sc2cc(C(F)(F)F)ccc2c1Cl` registered a melting point of 205 to 207 °C.

`OC(c1ccccc1)(c1ccc(F)cc1)c1ccc(F)cc1` gave a melting point of 86 to 88 °C.

`O=C(O)/C=C/c1ccccn1` had a melting point of 201 to 203 °C.

`CN(C)S(=O)(=O)c1cc(C(=O)O)n(C)c1` came in with a melting point of 159 to 161 °C.

`O=C(O)c1ccccc1OCc1cccc(Br)c1` yielded a melting point of 108 to 110 °C.

The compound `COc1cc(C)c(N)cc1OC` showed a melting point of 39 to 41 °C.

On to `O=C(Nc1cccc(I)c1)C(F)(F)F`, for which the melting point lay in the range of 129 to 131 °C.

In turn, `COc1ccc(CCC(=O)NN)cc1` yielded a melting point of 129 to 131 °C.

Compound `COc1nc(C)cc(=O)[nH]1` had a melting point of 199 to 201 °C.

`Nc1ccc(Oc2ccnc3ccccc23)cc1` registered a melting point of 135 to 137 °C.

As for `O=C(O)c1ccc(Nc2ncnc3ccccc23)cc1`, the melting point was 345 to 347 °C.

Turning to `O=C(O)c1cnoc1`, the melting point was in the range of 99 to 101 °C.

`CCOc1ccc(C(=O)NCC(=O)O)cc1OCC` displayed a melting point of 119 to 122 °C.

For the compound `Nc1oc2ccc(F)cc2c(=O)c1C=O`, the melting point fell in the range of 251 to 253 °C.

The compound `CC(C)(C)C(=O)COc1ccc([N+](=O)[O-])cc1Cl` had a melting point of 114 to 116 °C.

Turning to `O=C(O)Cc1c[nH]c2cccc(Br)c12`, the melting point was in the range of 184 to 186 °C.

As to `CCCn1c(C)nnc1CO`, the melting point is 59 to 61 °C.

The compound `NC(=O)COc1cccc(CO)c1` gave a melting point of 116 to 118 °C.

The compound `Cc1ccc(C(=O)NCC(=O)O)cc1C` returned a melting point of 160 to 162 °C.

The compound `CC(C)(C)c1ccc(C(C)(C)N)cc1` gave a melting point of 75 to 77 °C.

In turn, `N#CCc1cc(F)cc2c1OCOC2` returned a melting point of 75 to 77 °C.

`NN=C(Nc1ccccc1)c1cc(F)cc(F)c1` displayed a melting point of 99 to 101 °C.

`O=C(O)Cn1c(-c2cccc(Cl)c2Cl)nc2ccccc21` came in with a melting point of 235 to 237 °C.

On to `O=C(O)c1cccc(OCC(F)F)n1`, for which the melting point lay in the range of 94 to 96 °C.

`CCOC(=O)CS(=O)(=O)Cc1ccccc1` displayed a melting point of 49 to 51 °C.

With `COc1ccc2[nH]cc(C3CCNCC3)c2c1`, the melting point lay within 169 to 171 °C.

In turn, `Cn1cc(C#N)c(N)n1` registered a melting point of 119 to 121 °C.

In turn, `O=c1ccc2cc(S(=O)(=O)Cl)ccc2o1` showed a melting point of 117 to 119 °C.

In turn, `Cc1oc(C)c(C(=O)O)c1C` yielded a melting point of 131 to 133 °C.

As to `N#Cc1cccc(CN2C(=O)CSC2=O)c1`, the melting point was in the range of 112 to 114 °C.

As for `NC(=O)CCc1ccc([N+](=O)[O-])cc1[N+](=O)[O-]`, the melting point fell in the range of 115 to 117 °C.

`N#Cc1ccc(Oc2ccccc2C(F)(F)F)nc1`: the melting point was in the range of 80 to 82 °C.

As to `COC(=O)c1ccc2c(=O)[nH]c(CCl)nc2c1`, the melting point lay in the range of 210 to 212 °C.

In turn, `COC(=O)COc1ccc(N)cc1Cl` came in with a melting point of 66 to 68 °C.

For `O=C(O)c1cc(-c2cccc(Br)c2)nc2ccccc12`, the melting point is 215 to 217 °C.

In the case of `N#Cc1ccccc1S(=O)(=O)N1CCN(C(=O)CCl)CC1`, the melting point was in the range of 206 to 208 °C.

`O=c1c2ccccc2ncn1CCBr` gave a melting point of 105 to 107 °C.

For the compound `Cc1nc(O)c2c(n1)CCCC2`, the melting point lay within 206 to 208 °C.

In turn, `O=c1c(Cl)c(Cl)c1=O` gave a melting point of 49 to 51 °C.

`Nc1ccc(-n2ccnn2)cc1` showed a melting point of 137 to 139 °C.

The compound `CCOC(=O)c1nc(C)oc1N` yielded a melting point of 123 to 125 °C.

Turning to `O=C(O)C1(c2ccc3c(c2)OCO3)CCCCC1`, the melting point lay in the range of 176 to 178 °C.

For the compound `Nc1ccc(-c2nnc[nH]2)cc1`, the melting point was 203 to 205 °C.

`Cc1nn(-c2ccccc2)c(N)c1C(F)(F)F`: the melting point was in the range of 77 to 79 °C.

For `O=C(CCl)Nc1cccnc1`, the melting point is 179 to 181 °C.

In the case of `CN(C)c1nc(-c2ccccc2)c(C=O)s1`, the melting point is 123 to 125 °C.

For `O=S(=O)(c1cccc(Br)c1)N1CCNCC1`, the melting point lay in the range of 97 to 101 °C.

`CC1CCC(N)(C(=O)O)CC1` (stereo not drawn) came in with a melting point of 200 to 202 °C.

Consider `CN1CCN(Cc2cccc(N)c2)CC1`, for which the melting point is 78 to 80 °C.

With `COc1ccc(-c2cc(C(=O)O)no2)c(F)c1`, the melting point was in the range of 194 to 196 °C.

With `CC(C)n1cnnc1-c1ccccc1N`, the melting point is 97 to 99 °C.

`Nc1ccc2c(c1)CCC(=O)N2` registered a melting point of 170 to 172 °C.

As to `CC(C)(C)OC(=O)N1CCCc2cccc(O)c21`, the melting point lay within 60 to 62 °C.

Turning to `NS(=O)(=O)c1ccc(NC(=O)C(=O)O)cc1`, the melting point lay within 259 to 261 °C.

In turn, `Nc1cccc(-c2ncco2)c1` showed a melting point of 61 to 63 °C.

On to `Nc1ccccc1C(=O)NCc1ccco1`, for which the melting point was in the range of 76 to 78 °C.

In turn, `CNCc1cn(-c2ccccc2)nc1-c1ccc(Cl)cc1` displayed a melting point of 65 to 67 °C.

In turn, `COc1ccc(C(=O)c2ccccc2Cl)c(OC)c1` returned a melting point of 61 to 63 °C.

For `O=C(O)c1nn(-c2ccccc2)cc1O`, the melting point lay within 154 to 156 °C.

As to `CS(=O)(=O)NCC(=O)O`, the melting point fell in the range of 174 to 176 °C.

For the compound `Nc1cccc(-n2ccnc2S)c1`, the melting point was 176 to 178 °C.

`OC1COc2ccc(Br)cc21` (stereo not drawn) registered a melting point of 79 to 81 °C.

`O=C(CCCl)Nc1ccccn1` returned a melting point of 104 to 106 °C.

As to `O=C(O)CCc1ccc2ccccc2n1`, the melting point fell in the range of 107 to 109 °C.

For the compound `O=C(O)c1cn(Cc2cccc(F)c2)nn1`, the melting point lay within 189 to 191 °C.

On to `N#CCCN1C(=O)NC2(CCCC2)C1=O`, for which the melting point is 104 to 106 °C.

`CNc1nc(C)cs1` returned a melting point of 69 to 71 °C.

For the compound `CC(=O)NCCc1ccc(S(=O)(=O)Cl)cc1`, the melting point fell in the range of 131 to 133 °C.

Compound `O=C(O)c1ccc(S(=O)(=O)NCC2CCCO2)cc1` (stereo not drawn) gave a melting point of 169 to 171 °C.
